For seven compounds, Ki results are on record in patent publication US6828330B2, “Quinuclidine-substituted hetero-bicyclic aromatic compounds for the treatment of disease” (Pharmacia & Upjohn Company, priority 2001, dated 2004).

Counter-ions that a name gives are not always drawn.

As a reminder, the Ki is a measure of affinity in units of concentration, obtained from inhibition or displacement. The low end stands for a stronger hold on the target, the high end for a looser hold on the target.

For this test, the target named is T1, α7 nAChR (Rattus norvegicus, UniProt Q05941).
T1 construct: the brains (whole brain minus cerebellum) are dissected quickly, weighed and homogenized; from tissue; host or cells: rat brain (whole brain minus cerebellum) membranes
T1 sequence (Q05941 23-502): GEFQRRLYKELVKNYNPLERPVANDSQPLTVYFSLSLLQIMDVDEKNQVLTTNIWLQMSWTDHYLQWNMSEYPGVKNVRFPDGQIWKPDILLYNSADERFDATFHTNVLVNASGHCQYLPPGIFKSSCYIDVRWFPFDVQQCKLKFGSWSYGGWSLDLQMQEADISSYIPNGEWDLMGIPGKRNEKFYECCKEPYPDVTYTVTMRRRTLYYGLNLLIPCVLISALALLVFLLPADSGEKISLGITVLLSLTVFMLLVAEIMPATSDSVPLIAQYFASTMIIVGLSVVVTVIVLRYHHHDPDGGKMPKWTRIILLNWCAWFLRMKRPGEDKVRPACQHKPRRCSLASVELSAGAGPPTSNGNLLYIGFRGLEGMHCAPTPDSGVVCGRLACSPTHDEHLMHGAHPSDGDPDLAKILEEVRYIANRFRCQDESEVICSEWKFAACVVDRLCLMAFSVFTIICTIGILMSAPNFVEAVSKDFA
Nature of the test: [3H]-MLA competition binding assay in rat brain membranes. As to conditions: inhibition of [3H]-MLA binding (3.0 to 4.0 nM), rat brain homogenate (whole brain minus cerebellum), 1 hr at 25° C, Cheng-Prusoff. The method, then:
Materials and Methods for Identifying Binding Constants
Membrane Preparation. Male Sprague-Dawley rats (300-350 g) are sacrificed by decapitation and the brains (whole brain minus cerebellum) are dissected quickly, weighed and homogenized in 9 volumes/g wet weight of ice-cold 0.32M sucrose using a rotating pestle on setting 50 (10 up and down strokes). The homogenate is centrifuged at 1,000×g for 10 minutes at 4° C. The supernatant is collected and centrifuged at 20,000×g for 20 minutes at 4° C. The resulting pellet is resuspended to a protein concentration of 1-8 mg/mL. Aliquots of 5 mL homogenate are frozen at −80° C. until needed for the assay. On the day of the assay, aliquots are thawed at room temperature and diluted with Kreb's −20 mM Hepes buffer pH 7.0 (at room temperature) containing 4.16 mM NaHCO3, 0.44 mM KH2PO4, 127 mM NaCl, 5.36 mM KCl, 1.26 mM CaCl2, and 0.98 mM MgCl2, so that 25-150 μg protein are added per test tube. Proteins are determined by the Bradford method (Bradford, M. M., Anal. Biochem., 72, 248-254, 1976) using bovine serum albumin as the standard.
Binding Assay. For saturation studies, 0.4 mL homogenate are added to test tubes containing buffer and various concentrations of radioligand, and are incubated in a final volume of 0.5 mL for 1 hr at 25° C. Nonspecific binding was determined in tissues incubated in parallel in the presence of 0.05 ml MLA for a final concentration of 1 μM MLA, added before the radioligand. In competition studies, drugs are added in increasing concentrations to the test tubes before addition of 0.05 ml [^3H]-MLA for a final concentration of 3.0 to 4.0 nM [^3H]-MLA. The incubations are terminated by rapid vacuum filtration through Whatman GF/B glass filter paper mounted on a 48 well Brandel cell harvester. Filters are pre-soaked in 50 mM Tris HCl pH 7.0-0.05% polyethylenimine. The filters are rapidly washed two times with 5 mL aliquots of cold 0.9% saline and then counted for radioactivity by liquid scintillation spectrometry.
Data Analysis. In competition binding studies, the inhibition constant (Ki) was calculated from the concentration dependent inhibition of [^3H]-MLA binding obtained from non-linear regression fitting program according to the Cheng-Prusoff equation (Cheng, Y. C. and Prussoff, W. H., Biochem. Pharmacol., 22, pp. 3099-3108, 1973). Hill coefficients were obtained using non-linear regression (GraphPad Prism sigmoidal dose-response with variable slope).
Regarding `O=C(N[C@H]1CN2CCC1CC2)c1ccc2ocnc2c1` [Example 3, N-((3R)1-azabicyclo[2.2.2]oct-3-yl)-1,3-benzoxazole-5-carboxamide.fumarate], the inhibition constant Ki came out at 32 nM. This counts as double-digit nanomolar.
In turn, `Cc1nc2cc(C(=O)N[C@H]3CN4CCC3CC4)ccc2o1` [Example 4, N-((3R)1-azabicyclo[2.2.2]oct-3-yl)-2-methyl-1,3-benzoxazole-5-carboxamide.fumarate] registered a Ki of 305 nM. Compared with the last compound, the Ki is about 9.5-fold higher.
Consider `O=C(N[C@H]1CN2CCC1CC2)c1ccc2ncsc2c1` [Example 5, N-((3R)1-azabicyclo[2.2.2]oct-3-yl)-1,3-benzothiazole-6-carboxamide.fumarate], for which affinity was put at a Ki of 30 nM.
On to `O=C(N[C@H]1CN2CCC1CC2)c1ccc2c(c1)CCC2` [Example 6, N-((3R)1-azabicyclo[2.2.2]oct-3-yl)indane-5-carboxamide.fumarate], for which the Ki turned out to be 110 nM.
The compound `O=C(N[C@H]1CN2CCC1CC2)c1ccc2c(c1)OCO2` [Example 7, N-((3R)-1-azabicyclo[2.2.2]oct-3-yl)-1,3-benzodioxole-5-carboxamide, 4-methylbenzenesulfonate] came in with an inhibitory constant (Ki) of 24 nM.
The compound `C[C@H]1[C@H](NC(=O)c2ccc3ncsc3c2)C2CCN1CC2` [Example 11, N-[(2S,3R)-2-methyl-1-azabicyclo[2.2.2]oct-3-yl]-1,3-benzothiazole-6-carboxamide hydrochloride] registered an inhibition constant (Ki) of 92 nM.
For the compound `C[C@H]1[C@H](NC(=O)c2nc3ccccc3s2)C2CCN1CC2` [Example 1005, N-[(2S,3R)-2-methyl-1-azabicyclo[2.2.2]oct-3-yl]-1,3-benzothiazole-2-carboxamide hydrochloride], the inhibitory constant (Ki) came to 73 nM.
